# Reference: US8987228B2, “Pharmaceutical composition including an A3 adenosine receptor agonist 1-deooxy-1-[N6-(3-idobenzyl)-adenin-9-yl]-N-methyl-β-D-ribofuronamide(IB-MECA/CF-101) for treatment of psoriasis” (Can-Fite Biopharma Ltd., priority 2009, dated 2015)
# “Also recorded” adds a separate entry of the source.
# System: moderate-to-severe chronic plaque psoriasis
# Assay: Phase 2, multi-center, randomized, double-blind, placebo-controlled clinical study in psoriasis patients (PASI assessment)
# Assay type: in vivo, human
# Conditions: 12 weeks
# Experimental: A Phase 2, multi-center, randomized, double-blind, placebo-controlled clinical study was conducted in adult males and females, with ages of 18 to 70 years, with a diagnosis of moderate-to-severe chronic plaque psoriasis.
# Eligible patients were randomly assigned to receive either placebo or a clinical grade […][N^6-(3-iodobenzyl)-adenin-9-yl]-N-methyl-β-D-ribofuronamide, IB-MECA (code-named by the study sponsor, Can-Fite Biopharma, the Assignee of this application, as “CF101”) at doses of 1 mg, 2 mg and 4 mg, taken orally twice daily (namely, total daily doses of 2 mg, 4 mg and 8 mg, respectively). IB-MECA was formulated in a tablet formulation as detailed in Table 1 below. Patients were instructed to take the formulation on an empty stomach. The study duration was 12 weeks.
# The study was carried out in cohorts:
# Cohort 1: 1 mg IB-MECA or placebo.
# Cohort 2: 2 mg IB-MECA or placebo.
# Cohort 3: 4 mg IB-MECA or placebo.
# Within each cohort, patients were randomly assigned to either IB-MECA or placebo in a 3:1 ratio.
# Disease was assessed using the Psoriasis Area and Severity Index (PASI).
# Sixty two (62) patients were evaluated that belonged ton the following treatment groups (administration twice a day): […]
compound,measurement,setting,value
"CNC(=O)[C@H]1O[C@@H](n2cnc3c(NCc4cccc(I)c4)ncnc32)[C@H](O)[C@@H]1O [IB-MECA, 1-deoxy-1-[N^6-(3-iodobenzyl)-adenin-9-yl]-N-methyl-β-D-ribofuronamide]",change in the Psoriasis Area and Severity Index (PASI) score from baseline over the study period,"2 mg IB-MECA orally twice daily (total 4 mg/day) versus placebo, patients with moderate-to-severe chronic plaque psoriasis, FIG. 1",continuous improvement in the patients' condition throughout the course of the study; also recorded: marked effect
same,difference between three doses of IB-MECA in the change in the PASI score from baseline over the study period,"2 mg twice daily (total 4 mg/day) compared with 1 mg and 4 mg twice daily (2 mg/day and 8 mg/day), oral, FIG. 2",considerably greater response over the two other tested dose groups; also recorded: significantly more effective in treatment of the psoriatic plaques than treatment of psoriasis at daily doses of 2 mg or 8 mg; also recorded: superior to a lower daily dose of 2 mg or a higher dose of 8 mg
